Results published in patent US10189785B2, “Heterocyclic compound” (TAKEDA PHARMACEUTICAL COMPANY LIMITED, priority 2015, dated 2019).

Key:
[1] = tested on: lung adenocarcinoma cell line HCC4006; assay: HCC4006 cell growth inhibition test (Test Example 2); format: cell-based; conditions: Homo sapiens, 120 h; 1 μM test compound; HCC4006 cells, culture for 5 days, CellTiter-Glo; read-out: Rate of inhibition (%) at 1 μM
Protocol: A lung adenocarcinoma cell line HCC4006 (ATCC) was cultured using an RPMI-1640 medium (Wako Pure Chemical Industries, Ltd.) containing 10% fetal bovine serum and penicillin/streptomycin. 250 cells per well were inoculated into 40 μL of a medium in a 384-well culture plate. On the next day, 10 μL of each test compound was added to the cells. After culture for 5 days, the medium was discarded, and 30 μL of CellTiter-Glo Luminescent Cell Viability Assay solution (Promega Corp., Fitchburg, Wis., U.S.) was added to each well. Light emission signals were measured using EnVision (PerkinElmer, Inc., Waltham, Mass., U.S.).
The rate of inhibition (%) by the test compound was calculated according to the following expression: Rate of inhibition (%)=(1−(Count of the test compound−Blank)/(Control−Blank))×100
In the above expression, a count under compound non-addition conditions was indicated as a control, and a count under cell-free conditions was indicated as a blank.

[2] = molecular target: T1, SPT (SPT2-expressing membrane fraction: human SPT1, human SPT2 and human ssSPTa) (Homo sapiens, UniProt O15269+O15270); assay: SPT enzyme inhibition test (Test Example 1); format: biochemical; conditions: read-out: Rate of inhibition (%) at 1 μM
T1 construct: Full-length human SPT1, human SPT2 and human ssSPTa used; made in house; host or cells: FreeStyle 293 cells (pcDNA3.1 vectors, cotransfection); crude membrane fraction used
T1 sequence (O15269 1-473): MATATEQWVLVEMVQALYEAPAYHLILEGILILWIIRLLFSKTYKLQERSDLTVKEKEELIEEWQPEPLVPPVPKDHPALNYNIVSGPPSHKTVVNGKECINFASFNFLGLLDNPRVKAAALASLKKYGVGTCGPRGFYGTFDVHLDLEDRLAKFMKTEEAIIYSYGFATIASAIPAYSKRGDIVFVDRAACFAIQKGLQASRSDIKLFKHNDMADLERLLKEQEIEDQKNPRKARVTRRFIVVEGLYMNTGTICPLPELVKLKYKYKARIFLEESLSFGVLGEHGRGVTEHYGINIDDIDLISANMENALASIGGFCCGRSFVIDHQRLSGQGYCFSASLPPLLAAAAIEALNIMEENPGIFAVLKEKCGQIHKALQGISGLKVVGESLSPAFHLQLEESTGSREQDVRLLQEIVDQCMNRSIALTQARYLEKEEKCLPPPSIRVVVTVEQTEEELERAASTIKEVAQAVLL
T1 sequence (O15270 1-562): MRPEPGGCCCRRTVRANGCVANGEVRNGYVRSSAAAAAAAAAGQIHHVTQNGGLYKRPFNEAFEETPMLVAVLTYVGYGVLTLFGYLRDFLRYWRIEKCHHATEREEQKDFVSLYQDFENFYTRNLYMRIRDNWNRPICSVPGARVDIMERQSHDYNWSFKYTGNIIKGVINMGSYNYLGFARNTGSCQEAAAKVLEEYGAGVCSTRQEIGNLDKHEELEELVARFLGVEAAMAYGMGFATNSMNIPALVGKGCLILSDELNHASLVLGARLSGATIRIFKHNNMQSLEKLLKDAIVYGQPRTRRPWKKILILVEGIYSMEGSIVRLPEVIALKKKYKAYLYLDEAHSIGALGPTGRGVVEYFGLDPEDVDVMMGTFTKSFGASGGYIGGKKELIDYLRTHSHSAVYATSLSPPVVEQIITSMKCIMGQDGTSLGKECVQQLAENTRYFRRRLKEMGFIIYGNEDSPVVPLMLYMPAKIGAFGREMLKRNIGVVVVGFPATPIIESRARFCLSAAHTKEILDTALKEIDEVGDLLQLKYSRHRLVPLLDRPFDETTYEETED
T1 sequence (Q969W0 1-71 partner): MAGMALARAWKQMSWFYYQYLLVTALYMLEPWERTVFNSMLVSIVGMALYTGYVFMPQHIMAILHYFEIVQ
Protocol: After culture for 3 days, the cells were recovered and frozen at −80° C. to obtain expressing cells. The frozen cells were suspended in a 50 mM Hepes buffer (pH 7.5) containing 250 mM sucrose, 5 mM ethylenediaminetetraacetic acid (EDTA), 5 mM dithiothreitol (DTT) and Complete, EDTA-free (Roche Applied Science, Penzberg, Upper Bavaria, Germany). The cells were disrupted (on ice, 20,000 rpm, 20 sec×2) using POLYTORON (Central Scientific Commerce, Inc.). After centrifugation at 2000 rpm (850×g) for 10 minutes, the supernatant was recovered. Subsequently, the supernatant was centrifuged at 40,000 rpm (186,010×g) for 60 minutes, and the supernatant was discarded. The pellets were suspended in a 50 mM Hepes buffer (pH 7.5) containing 5 mM EDTA, 5 mM DTT and Complete, EDTA-free, passed through a 40-μm cell strainer and stored at −80° C. The resultant was used as a SPT2-expressing membrane fraction. The protein concentration was determined using CBB Protein Assay with bovine serum albumin used as standards.
5 μL of each test compound was mixed with 10 μL of the 100 μg/mL SPT2-expressing membrane fraction using an assay buffer (100 mM Hepes (pH 8.0) containing 2.5 mM EDTA, 5 mM DTT and 0.01% fatty acid-free bovine serum albumin), and the mixture was left standing at room temperature for 60 minutes. Subsequently, 5 μL of a substrate solution containing 2 mM L-serine and 20 μM palmitoyl CoA was added thereto, and an enzyme reaction was carried out in a 384-well plate using 20 μL in total of the reaction system. After reaction at room temperature for 15 minutes, the reaction was terminated by the addition of 20 μL of a 2% aqueous formic acid solution. Subsequently, 40 μL of acetonitrile containing 600 nM C17-sphinganine (Avanti Polar Lipids, Inc., Alabaster, Ala., U.S.) was added thereto as an internal standard. The reaction sample was subjected to on-line solid-layer extraction using RapidFire 300 (Agilent Technologies Inc., Santa Clara, Calif., U.S.). […] Mass chromatograms were obtained using Analyst software (version 1.5.0, AB SCIEX). Their mass chromatogram areas were respectively calculated, and the rate of inhibition (%) by the test compound was calculated using an area ratio (the value of the reaction product was divided by the value of the internal standard).

| inhibition at 1 µM [2] [%] | Structure (SMILES) | inhibition at 1 µM [1] [%] |
| --- | --- | --- |
| 103 | Cc1nn(C)c(Cl)c1C(=O)N[C@@H]1CCN(C(=O)c2cc(C)c3ncc(C)n3c2)C[C@@H]1c1ccccc1 [Example 344B, 5-chloro-N-((3S,4R)-1-((3,8-dimethylimidazo[1,2-a]pyridin-6-yl)carbonyl)-3-phenylpiperidin-4-yl)-1,3-dimethyl-1H-pyrazole-4-carboxamide] | 51 |
| 100 | O=C(N[C@@H]1CCN(C(=O)c2cc(Cl)c3nccnc3c2)C[C@@H]1c1ccc(F)cc1)c1ncccc1C(F)(F)F [Example 245B, N-((3S,4R)-1-((8-Chloroquinoxalin-6-yl)carbonyl)-3-(4-fluorophenyl)piperidin-4-yl)-3-(trifluoromethyl)pyridine-2-carboxamide] | 53 |
| 101 | O=C(N[C@@H]1CCN(C(=O)c2cc(Cl)c3nccnc3c2)C[C@@H]1c1ccccc1)c1ncccc1Cl [Example 246B, 3-Chloro-N-((3S,4R)-1-((8-chloroquinoxalin-6-yl)carbonyl)-3-phenylpiperidin-4-yl)pyridine-2-carboxamide] | 55 |
| 100 | CCOc1cc(C(=O)N[C@@H]2CCN(C(=O)c3cc(Cl)c4nccnc4c3)C[C@@H]2c2ccccc2)n(C)n1 [Example 170B, N-((3S,4R)-1-((8-Chloroquinoxalin-6-yl)carbonyl)-3-phenylpiperidin-4-yl)-3-ethoxy-1-methyl-1H-pyrazole-5-carboxamide] | 50 |
| 99 | COc1cc(C(=O)N2CC[C@@H](NC(=O)c3c(C)c(C)nn3C)[C@@H](c3ccccc3)C2)cc2nccnc12 [Example 324B, N-((3S,4R)-1-((8-methoxyquinoxalin-6-yl)carbonyl)-3-phenylpiperidin-4-yl)-1,3,4-trimethyl-1H-pyrazole-5-carboxamide] | 49 |
| 100 | COc1cc(C(=O)N2CC[C@@H](NC(=O)c3ncccc3C(F)(F)F)[C@@H](c3ccc(F)cc3)C2)cnc1OC [Example 191B, N-((3S,4R)-1-((5,6-dimethoxypyridin-3-yl)carbonyl)-3-(4-fluorophenyl)piperidin-4-yl)-3-(trifluoromethyl)pyridine-2-carboxamide] | 47 |
| 102 | COc1cc(C(=O)N2CC[C@@H](NC(=O)c3ccccc3OC(F)F)[C@H](c3ccc(F)cc3)C2)cnc1OC [Example 361B, 2-(difluoromethoxy)-N-((3R,4R)-1-((5,6-dimethoxypyridin-3-yl)carbonyl)-3-(4-fluorophenyl)piperidin-4-yl)benzamide] | 45 |
| 101 | Cc1nn(C)c(Cl)c1C(=O)N[C@@H]1CCN(C(=O)c2cc(Cl)c3ncc(C)n3c2)C[C@@H]1c1ccccc1 [Example 342B, 5-chloro-N-((3S,4R)-1-((8-chloro-3-methylimidazo[1,2-a]pyridin-6-yl)carbonyl)-3-phenylpiperidin-4-yl)-1,3-dimethyl-1H-pyrazole-4-carboxamide] | 51 |

Further lines, the molecule ahead of its results:

| Structure (SMILES) | inhibition at 1 µM [2] [%] | inhibition at 1 µM [1] [%] |
| --- | --- | --- |
| CCn1ncc2c1C(NC(=O)c1ccccc1OC(F)(F)F)CCN2C(=O)c1cnc(OC)c(OC)c1 (centres unmarked) [Example 155A, N-(4-((5,6-Dimethoxypyridin-3-yl)carbonyl)-1-ethyl-4,5,6,7-tetrahydro-1H-pyrazolo[4,3-b]pyridin-7-yl)-2-(trifluoromethoxy)benzamide] | 103 | 53 |
| COc1ccc(C(=O)N2CCC(NC(=O)c3ncccc3C(F)(F)F)c3c2cnn3C)cc1OC (centres unmarked) [Example 100A, N-(4-(3,4-dimethoxybenzoyl)-1-methyl-4,5,6,7-tetrahydro-1H-pyrazolo[4,3-b]pyridin-7-yl)-3-(trifluoromethyl)pyridine-2-carboxamide] | 97 | 39 |
| COc1cc(C(=O)N2CC[C@@H](NC(=O)c3cnn(C)c3Cl)[C@@H](c3ccccc3)C2)cnc1OC [Example 150B, 5-chloro-N-((3S,4R)-1-((5,6-dimethoxypyridin-3-yl)carbonyl)-3-phenylpiperidin-4-yl)-1-methyl-1H-pyrazole-4-carboxamide] | 101 | 47 |
| COc1cc(C(=O)N2CC[C@@H](NC(=O)c3cccnc3C(F)(F)F)[C@@H](c3ccccc3)C2)cnc1OC [Example 140B, N-((3S,4R)-1-((5,6-dimethoxypyridin-3-yl)carbonyl)-3-phenylpiperidin-4-yl)-2-(trifluoromethyl)nicotinamide] | 101 | 49 |
| COc1cc(C(=O)N2CC[C@@H](NC(=O)c3cc(C)nn3C)[C@@H](c3ccccc3)C2)cnc1OC [Example 151B, N-((3S,4R)-1-((5,6-dimethoxypyridin-3-yl)carbonyl)-3-phenylpiperidin-4-yl)-1,3-dimethyl-1H-pyrazole-5-carboxamide] | 99 | 51 |
| COc1ccc(C(=O)N2CC[C@@H](NC(=O)c3ncccc3C(F)(F)F)[C@@H](c3ccccc3)C2)nc1OC [Example 44B, N-((3S,4R)-1-((5,6-dimethoxypyridin-2-yl)carbonyl)-3-phenylpiperidin-4-yl)-3-(trifluoromethyl)pyridine-2-carboxamide] | 98 | 47 |
| O=C(N[C@@H]1CCN(C(=O)c2ccc3nccnc3c2)C[C@@H]1c1ccccc1)c1ccccc1OC(F)(F)F [Example 57B, N-((3S,4R)-3-phenyl-1-(quinoxalin-6-ylcarbonyl)piperidin-4-yl)-2-(trifluoromethoxy) benzamide] | 96 | 54 |
| Cc1nn(C)c(Cl)c1C(=O)N[C@@H]1CCN(C(=O)c2cc(Cl)c3nccnc3c2)C[C@@H]1c1ccccc1 [Example 166B, 5-Chloro-N-((3S,4R)-1-((8-chloroquinoxalin-6-yl)carbonyl)-3-phenylpiperidin-4-yl)-1,3-dimethyl-1H-pyrazole-4-carboxamide] | 101 | 53 |
